Test results reported in patent publication US8877161B2 (priority 2011, dated 2014).
Where two headings read alike, the source gives them in different places. Marks after values point to notes of the source that are not given here. Where a SMILES comes first, the peptide text is derived from it.

Legend:
Assay type in all cases: binding
AbGD1b (GD1b/AbGD1b) = settings: peptide at its IC50 AbGM1-1; lot # D710-6
AbGM2 (GM2/AbGM2) = settings: peptide at its IC50 AbGM1-1; lot # D710-2
AbGM4 (GM4/AbGM4) = settings: peptide at its IC50 AbGM1-1; lot # GMR6
[1] = target: cholera toxin B subunit (CTB); ligand LOSGM1 (Vibrio cholerae serotype O1, UniProt P01556)
cholera toxin B subunit (CTB); ligand LOSGM1, sequence (P01556 22-124 limits assumed): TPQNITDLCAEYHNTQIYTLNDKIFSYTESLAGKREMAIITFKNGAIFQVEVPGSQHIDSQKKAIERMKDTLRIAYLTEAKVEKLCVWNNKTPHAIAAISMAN

[2] = target: cholera toxin B subunit (CTB); ligand GD1b (Vibrio cholerae serotype O1, UniProt P01556)
cholera toxin B subunit (CTB); ligand GD1b, sequence (P01556 22-124 limits assumed): as above

[3] = target: cholera toxin B subunit (CTB); ligand GM1 (Vibrio cholerae serotype O1, UniProt P01556)
cholera toxin B subunit (CTB); ligand GM1, sequence (P01556 22-124 limits assumed): as above

AbSGPG (SGPG/AbSGPG) = settings: peptide at its IC50 AbGM1-1; lot # D710-5
[4] = target: cholera toxin B subunit (CTB); ligand Lipid AP (Vibrio cholerae serotype O1, UniProt P01556)
cholera toxin B subunit (CTB); ligand Lipid AP, sequence (P01556 22-124 limits assumed): as above

AbGD3 (GD3/AbGD3) = settings: peptide at its IC50 AbGM1-1; lot # R24
AbGD1a (GD1a/AbGD1a) = settings: peptide at its IC50 AbGM1-1; lot # 109H
[5] = target: cholera toxin B subunit (CTB); ligand fucosyl-GM1 (F-GM1) (Vibrio cholerae serotype O1, UniProt P01556)
cholera toxin B subunit (CTB); ligand fucosyl-GM1 (F-GM1), sequence (P01556 22-124 limits assumed): as above

AbF-GM1 (F-GM1/AbF-GM1) = settings: peptide at its IC50 AbGM1-1; lot # G351
[6] = tested on: rabbit anti-GM1 antibodies (AbGM1); settings: for IC50: AbGM1-1 lot # 431A; for Inhibition percent at IC50AbGM1-1: GM1/AbGM1-1 / Inhibition percent at IC50 AbGM1-1: AbGM1-3 / Inhibition percent at IC50 AbGM1-1: AbeGM1-4 / Inhibition percent at IC50 AbGM1-1: AbGM1-5 / Inhibition percent at IC50 AbGM1-1: AbGM1-1 / Inhibition percent at IC50 AbGM1-1: AbGM1-2: peptide at its IC50 AbGM1-1; for Inhibition percent at IC50AbGM1-1: GM1/AbGM1-1: lot # 431A; for Inhibition percent at IC50 AbGM1-1: AbGM1-3: antibody lot # 101J; for Inhibition percent at IC50 AbGM1-1: AbeGM1-4: antibody lot # 104H; for Inhibition percent at IC50 AbGM1-1: AbGM1-5: antibody lot # 105T; for Inhibition percent at IC50 AbGM1-1: AbGM1-1: antibody lot # 431A, means of 4 values; for Inhibition percent at IC50 AbGM1-1: AbGM1-2: antibody lot # 431B

| Molecule | Inhibition percent at IC50AbGM1-1: GD1b/AbGD1b (AbGD1b (GD1b/AbGD1b)) | Inhibition percent at IC50AbGM1-1: GM2/AbGM2 (AbGM2 (GM2/AbGM2)) | Inhibition percent at IC50AbGM1-1: GM4/AbGM4 (AbGM4 (GM4/AbGM4)) | Inhibition percent at IC50 GM1: LOSGM1 [1] | Inhibition percent at IC50 GM1: GD1b [2] | IC50 GM1 [3] | Inhibition percent at IC50 GM1: GM1 [3] | Inhibition percent at IC50AbGM1-1: SGPG/AbSGPG (AbSGPG (SGPG/AbSGPG)) | Inhibition percent at IC50 GM1: Lipid AP [4] | Inhibition percent at IC50AbGM1-1: GD3/AbGD3 (AbGD3 (GD3/AbGD3)) | Inhibition percent at IC50AbGM1-1: GD1a/AbGD1a (AbGD1a (GD1a/AbGD1a)) | Inhibition percent at IC50AbGM1-1: F-GM1/AbF-GM1 (AbF-GM1 (F-GM1/AbF-GM1)) | IC50 ([6]; Table 4, dilution 1:500) | IC50 ([6]; Table 5) | Inhibition percent at IC50AbGM1-1: GM1/AbGM1-1 ([6]; Table 5) | Inhibition percent at IC50 AbGM1-1: AbGM1-3 ([6]; dilution 1:500) | Inhibition percent at IC50 AbGM1-1: AbeGM1-4 ([6]; dilution 1:500) | Inhibition percent at IC50 AbGM1-1: AbGM1-5 ([6]; dilution 1:500) | Inhibition percent at IC50 AbGM1-1: AbGM1-1 ([6]; dilution 1:500) | Inhibition percent at IC50 AbGM1-1: AbGM1-2 ([6]; dilution 1:500) | further results |
| --- | --- | --- | --- | --- | --- | --- | --- | --- | --- | --- | --- | --- | --- | --- | --- | --- | --- | --- | --- | --- | --- |
| CC(C)C[C@H](NC(=O)[C@H](CCCCN)NC(=O)[C@@H](NC(=O)[C@H](Cc1ccccc1)NC(=O)[C@H](Cc1c[nH]c2ccccc12)NC(=O)[C@H](C)NC(=O)[C@@H]1CCCN1C(=O)[C@@H](N)Cc1ccccc1)[C@@H](C)O)C(=O)N[C@@H](Cc1ccc(O)cc1)C(=O)N1CCC[C@H]1C(=O)N[C@@H](CCCNC(=N)N)C(=O)N[C@H](C(=O)O)[C@@H](C)O [PGM1-4, FPAWFTKLYPRT] (H-FPAWFTKLYPRT-OH) | 12.1% | 0% | 0% | 51.1% | 18.9% | 77.4 nM | 50% | 0% | 0% | 0% | 0% | 25.7% | 175 nM | 175 nM | 50% | 12.6% | 33.9% | 0% | 50% | 70.1% | Inhibition percent at IC50 GM1: F-GM1 [5]: 62.1% |
| CC[C@H](C)[C@H](NC(=O)[C@@H](N)CCC(N)=O)C(=O)N[C@@H](CC(N)=O)C(=O)N[C@H](C(=O)N[C@@H](C)C(=O)N[C@@H](CCCCN)C(=O)N[C@@H](Cc1c[nH]c2ccccc12)C(=O)N[C@@H](Cc1c[nH]c2ccccc12)C(=O)N[C@@H](CCCCN)C(=O)N[C@H](C(=O)N[C@@H](Cc1c[nH]cn1)C(=O)N[C@@H](Cc1ccccc1)C(=O)O)[C@@H](C)O)[C@@H](C)O [PGM1-5, QINTAKWWKTHF] (H-QINTAKWWKTHF-OH) | 0% | 6.5% | 0% | 50.0% | 39.8% | 34.4 nM | 50% | 0% | 0% | 0% | 0% | 0% | 481 nM | 481 nM | 50% | 12.1% | 0% | 32.9% | 50% | 0% | Inhibition percent at IC50 GM1: F-GM1 [5]: 52.1% |
| DASKALRSSGMP [PGM1-6] | 8.9% | 0% | 0% | – | – | – | 0% | 0% | – | 0% | 0% | 23.4% | 293 nM | 293 nM | 50% | 0% | 55.1% | 18.7% | 50% | 45.1% | Inhibition percent: LOSGM1 [1]: 0^d percent; Inhibition percent: GD1b [2]: 0^d percent; Inhibition percent: Lipid AP [4]: 0^d percent; Inhibition percent: F-GM1 [5]: 0^d percent |
